For this data set, the target named is ATP-dependent translocase ABCB1 (Homo sapiens, UniProt P08183). The experiment in a line: TP_TRANSPORTER: cell accumulation of doxorubicin in the presence of Azithromycin at a concentration of 0.3uM and 1mM in K562/ADR cells. It counts as functional, cell-based.
Chain of ATP-dependent translocase ABCB1 (P08183 whole entry): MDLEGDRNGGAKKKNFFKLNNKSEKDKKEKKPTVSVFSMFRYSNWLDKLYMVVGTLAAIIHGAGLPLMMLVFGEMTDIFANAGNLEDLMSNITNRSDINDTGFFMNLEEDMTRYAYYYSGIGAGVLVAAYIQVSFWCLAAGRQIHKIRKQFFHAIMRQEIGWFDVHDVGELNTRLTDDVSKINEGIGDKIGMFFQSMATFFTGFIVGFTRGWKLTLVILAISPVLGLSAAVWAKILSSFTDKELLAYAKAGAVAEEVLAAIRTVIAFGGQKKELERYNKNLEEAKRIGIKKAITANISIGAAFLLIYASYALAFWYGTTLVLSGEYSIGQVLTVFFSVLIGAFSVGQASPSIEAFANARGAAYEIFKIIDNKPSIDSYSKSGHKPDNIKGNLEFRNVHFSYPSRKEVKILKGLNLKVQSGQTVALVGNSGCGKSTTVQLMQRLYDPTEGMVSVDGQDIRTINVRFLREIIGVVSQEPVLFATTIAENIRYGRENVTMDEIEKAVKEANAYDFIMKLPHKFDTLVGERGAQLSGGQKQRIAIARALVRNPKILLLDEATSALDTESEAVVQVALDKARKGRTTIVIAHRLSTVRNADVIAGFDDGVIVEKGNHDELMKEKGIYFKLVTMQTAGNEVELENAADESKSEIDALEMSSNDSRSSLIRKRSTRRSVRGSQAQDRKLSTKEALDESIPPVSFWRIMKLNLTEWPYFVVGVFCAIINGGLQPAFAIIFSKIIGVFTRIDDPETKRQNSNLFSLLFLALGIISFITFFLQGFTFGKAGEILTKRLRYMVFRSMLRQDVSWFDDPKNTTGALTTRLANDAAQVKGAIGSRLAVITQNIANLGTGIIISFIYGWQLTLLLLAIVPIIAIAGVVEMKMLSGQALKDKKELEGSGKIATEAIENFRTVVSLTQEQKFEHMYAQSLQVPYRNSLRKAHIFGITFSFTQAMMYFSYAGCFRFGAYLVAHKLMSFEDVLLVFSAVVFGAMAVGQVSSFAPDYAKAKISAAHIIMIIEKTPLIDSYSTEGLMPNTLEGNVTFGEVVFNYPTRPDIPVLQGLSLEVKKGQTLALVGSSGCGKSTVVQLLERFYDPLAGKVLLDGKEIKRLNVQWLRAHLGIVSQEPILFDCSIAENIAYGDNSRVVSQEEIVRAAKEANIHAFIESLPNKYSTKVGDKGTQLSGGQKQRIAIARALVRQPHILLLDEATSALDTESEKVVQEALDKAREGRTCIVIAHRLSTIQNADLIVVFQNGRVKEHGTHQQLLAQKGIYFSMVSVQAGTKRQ

Take `CC[C@H]1OC(=O)[C@H](C)[C@@H](O[C@H]2C[C@@](C)(OC)[C@@H](O)[C@H](C)O2)[C@H](C)[C@@H](O[C@@H]2O[C@H](C)C[C@H](N(C)C)[C@H]2O)[C@](C)(O)C[C@@H](C)CN(C)[C@H](C)[C@@H](O)[C@]1(C)O` [AZITHROMYCIN]: the Activity entry is “inhibitor [+]”.

For the origin of these results see ChEMBL document CHEMBL2074566, “Azithromycin reverses anticancer drug resistance and modifies hepatobiliary excretion of doxorubicin in rats” (Eur J Pharmacol, 2004).
